Data published in patent US10588952B2, “Conjugate vaccine using trimming function of ERAP1” (SUMITOMO DAINIPPON PHARMA CO., LTD., priority 2013, dated 2020).

Legend:
ERAP1 [1] = target: T1, ERAP1 (Homo sapiens, UniProt Q9NZ08); assay: Test of trimming of N-terminal amino acid by ERAP1 (Experimental Example 9, Examples 69-84); format: biochemical; details: MAGE-A10 254-262 peptide obtained by ERAP1 trimming; from HPLC AUC;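 note: peptide incubated with ERAP1 for 1 h before HPLC analysis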
Protocol: The peptides synthesized in Examples 69-84 were evaluated for N-terminal amino acid trimming efficiency using ERAP1. 50 μl of ERAP1 solution (10 μg/ml) in pH 8.0, 20 mM Tris.HCl-100 mM NaCl buffer (Tris.HCl buffer) was added to 142 μl of Tris.HCl buffer. 10 mM peptide solution in DMSO (2.0 μl) and 6.0 μL of DMSO were added to the aforementioned ERAP1 solution, and the mixture was blended well and stood at 30° C. […] The peptide obtained by trimming was chemically synthesized separately, and analyzed under similar conditions in the absence of the enzyme. […]
(§1) pump: UFLC manufactured by Shimadzu […]
(§2) solution: 0.1% TFA H2O(A)-0.1% TFA CH3CN(B) […]
(§3) detection wavelength: λ=220 nm gradient: concentration of SOLUTION B was raised from 10% to 50% from 0.0 min to 8.5 min

ERAP1 [2] = target: T1, ERAP1; assay: Test of trimming of N-terminal amino acid by ERAP1 (Experimental Example 10, Examples 85-103); format: biochemical; details: MAGE-A10 254-262 peptide obtained by ERAP1 trimming; from HPLC AUC
Protocol: The peptides synthesized in Examples 85-103 were evaluated for N-terminal amino acid trimming efficiency using ERAP1. 50 μl of ERAP1 solution (10 μg/ml) in pH 8.0, 20 mM Tris.HCl-100 mM NaCl buffer (Tris.HCl buffer) was added to 142 μl of Tris.HCl buffer. 10 mM peptide solution in DMSO (2.0 μl) and 6.0 μL of DMSO were added to the aforementioned ERAP1 solution, and the mixture was blended well and stood at 30° C. […] The peptide to be obtained by trimming was chemically synthesized separately, and analyzed under similar conditions in the absence of the enzyme. The formation ratio of the peptide [MAGE-A10254-262 peptide ([…]) (SEQ ID NO: 19)] obtained by trimming was determined based on the obtained AUC, and is shown in Tables 45 and 46. […]
as §1, §2, §3

[3] = Measurement of solubility in isotonic buffer (Experimental Examples 7 and 8)
Protocol: To prepare a test solution, about 1 mg of a test product was measured and the isotonic buffer (0.5 mL) was added thereto. The prepared solution was shaken at room temperature for 90 min (shaking conditions: RECIPRO SHAKER SR-1N manufactured by TAITEC, Speed=8), centrifuged (15000 rpm, 5 min, room temperature), and the supernatant after centrifugation was used as a test solution.
About 1 mg of the test product was accurately measured, dissolved in 0.1% TFA water/acetonitrile=1/1, made the total amount 10 mL, and this was used as a standard solution of the test product.
The standard solution of the test product and the test solution are analyzed by HPLC (under the analysis conditions described in Table 34), and the solubility of the test product is calculated from the ratio of peak area compared to the standard solution.
column: Chemcopack Quicksorb (4.6 mmφ×150 mm, 5 μm)
manufactured by Chemco Scientific Co., Ltd.
mobile phase: SOLUTION A; 0.1% TFA water, SOLUTION B;
0.1% TFA acetonitrile solution
column temperature: room temperature
detection wavelength: UV 254 nm, 230 nm (2 wavelength detection)
sample injection volume: 10

T1 sequence (Q9NZ08 whole entry): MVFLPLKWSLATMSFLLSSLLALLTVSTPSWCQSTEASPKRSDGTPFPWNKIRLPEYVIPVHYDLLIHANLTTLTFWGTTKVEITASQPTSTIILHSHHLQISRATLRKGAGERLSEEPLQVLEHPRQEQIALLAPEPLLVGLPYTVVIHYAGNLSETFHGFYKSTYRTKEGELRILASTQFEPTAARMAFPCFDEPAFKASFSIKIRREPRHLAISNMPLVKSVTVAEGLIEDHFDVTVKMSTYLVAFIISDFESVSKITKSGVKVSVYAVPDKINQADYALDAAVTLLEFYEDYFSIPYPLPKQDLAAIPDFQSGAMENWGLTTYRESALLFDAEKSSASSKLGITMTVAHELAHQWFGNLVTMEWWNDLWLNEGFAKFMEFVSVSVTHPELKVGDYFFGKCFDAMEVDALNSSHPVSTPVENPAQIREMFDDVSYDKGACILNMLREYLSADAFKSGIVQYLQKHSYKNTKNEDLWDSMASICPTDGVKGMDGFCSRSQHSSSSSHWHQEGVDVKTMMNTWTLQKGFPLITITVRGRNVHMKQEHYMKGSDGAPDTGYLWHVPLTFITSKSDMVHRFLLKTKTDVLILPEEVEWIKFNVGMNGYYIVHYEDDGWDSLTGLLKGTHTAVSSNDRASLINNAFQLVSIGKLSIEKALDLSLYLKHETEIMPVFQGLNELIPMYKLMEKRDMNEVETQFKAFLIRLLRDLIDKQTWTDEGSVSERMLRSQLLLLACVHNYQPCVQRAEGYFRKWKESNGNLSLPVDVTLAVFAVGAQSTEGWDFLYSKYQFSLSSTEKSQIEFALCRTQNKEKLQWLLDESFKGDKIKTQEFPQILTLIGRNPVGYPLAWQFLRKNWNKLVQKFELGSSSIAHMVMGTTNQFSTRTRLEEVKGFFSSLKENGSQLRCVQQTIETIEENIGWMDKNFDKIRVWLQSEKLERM

| Substance | formation rate of GLYDGMEHL (SEQ ID NO: 19) (ERAP1 [2]) | further results |
| --- | --- | --- |
| H-CTGLYDGMEHL-OH [Example 77] | – | formation rate of GLYDGMEHL (SEQ ID NO: 19) (ERAP1 [1]): 89.4% |
| H-CVGLYDGMEHL-OH [Example 80] | – | formation rate of GLYDGMEHL (SEQ ID NO: 19) (ERAP1 [1]): 0.0% |
| H-CWGLYDGMEHL-OH [Example 78] | – | formation rate of GLYDGMEHL (SEQ ID NO: 19) (ERAP1 [1]): 0.0% |
| H-CYGLYDGMEHL-OH [Example 79] | – | formation rate of GLYDGMEHL (SEQ ID NO: 19) (ERAP1 [1]): 0.0% |
| H-DCGLYDGMEHL-OH [Example 95] | 3.2% | – |
| H-GLYDGMEHL-OH [SEQ ID NO: 19] | – | solubility thermodynamic at 90 min ([3]; pH 6): > 1000 µg/mL; solubility thermodynamic at 90 min ([3]; pH 7.4): > 1000 µg/mL |
| H-NCGLYDGMEHL-OH [Example 94] | 18.2% | – |
| H-PCGLYDGMEHL-OH [Example 86] | 19.2% | – |
| H-QCGLYDGMEHL-OH [Example 85] | 3.6% | – |
| H-RCGLYDGMEHL-OH [Example 93] | 0.0% | – |
| H-SCGLYDGMEHL-OH [Example 87] | 22.2% | – |
| H-TCGLYDGMEHL-OH [Example 88] | 7.3% | – |
| H-VCGLYDGMEHL-OH [Example 91] | 2.4% | – |
| H-VYGFVRACL-OH [SEQ ID NO: 87] | – | solubility thermodynamic at 90 min ([3]; pH 6): > 1000 µg/mL; solubility thermodynamic at 90 min ([3]; pH 7.4): > 1000 µg/mL |
| H-WCGLYDGMEHL-OH [Example 89] | 0.0% | – |
| H-YCGLYDGMEHL-OH [Example 90] | 5.7% | – |

Continued, in another order:

| formation rate of GLYDGMEHL (SEQ ID NO: 19) (ERAP1 [2]) | Substance | further results |
| --- | --- | --- |
| 2.9% | H-ECGLYDGMEHL-OH [Example 96] | – |
| 17.6% | H-FCGLYDGMEHL-OH [Example 103] | – |
| 10.4% | H-GCGLYDGMEHL-OH [Example 97] | – |
| 0.0% | H-HCGLYDGMEHL-OH [Example 98] | – |
| 0.0% | H-ICGLYDGMEHL-OH [Example 99] | – |
| 0.0% | H-KCGLYDGMEHL-OH [Example 101] | – |
| 0.0% | H-LCGLYDGMEHL-OH [Example 100] | – |
| 5.8% | H-MCGLYDGMEHL-OH [Example 102] | – |
